Molecules are shown by their SMILES.

In assay [1] the test system is PC12 cells. In words: PC12 cell differentiation (neurite outgrowth). In kind it is cell-based. The note with it: N2 medium, derivative 1-10 μM, 24 hr, visual inspection. Put shortly: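 PC12 cells in N2 medium were exposed to derivatives (1-10 μM) for 24 hr, with Fisetin (10 μM) as positive control. Cells counted as positive if bearing ≥1 neurite longer than one cell body diameter; 100 cells scored in each of three fields per treatment.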

Assay [2] concerns Nrf2. The experiment in a line: Nrf2 induction, SDS-PAGE and Western blotting of nuclear extracts. In kind it is cell-based. As to conditions: cells treated 1, 2 and 4 hr. The protocol: For immunoblotting of Nrf2, nuclear extracts were prepared as described (Schreiber, et al., Nucleic Acids Res. (1989) 17 (15), 6419) from untreated cells and cells treated with the Fisetin derivatives for 1, 2 and 4 hr. Fisetin was used as a positive control. […] Protein concentrations were determined using the BCA protein assay (Pierce). Equal amounts of protein were solubilized in 2.5×SDS-sample buffer, separated on 10% SDS-polyacrylamide gels and transferred to nitrocellulose. Equal loading and transfer of the samples was confirmed by staining the nitrocellulose with Ponceau-S. Transfers were blocked for 1 hr at room temperature with 5% nonfat milk in TBS/0.1% Tween 20 and then incubated overnight at 4° C. in the primary antibody diluted in 5% BSA in TBS/0.05% Tween 20. The primary antibodies used were: anti-Nrf2 (#SC13032; 1/1000) from Santa Cruz Biotechnology (Santa Cruz, Calif.) and anti-β-actin (#5125; 1/20,000) from Cell Signaling (Beverly, Mass.). The transfers were rinsed with TBS/0.05% Tween 20 and incubated for 1 hr at room temperature in horseradish peroxidase-goat anti-rabbit or goat anti-mouse (Biorad, Hercules, Calif.) diluted 1/5000 in 5% nonfat milk in TBS/0.1% Tween 20. The immunoblots were developed with the Super Signal reagent (Pierce, Rockford, Ill.).
The transcription factor Nrf2 plays a key role in regulating GSH metabolism in many different cell types (Lewerenz, et al., Antioxidant & Redox Signaling. (2011) 14, 1449-1465). We have shown that Fisetin can induce Nrf2 and this correlates with its ability to enhance GSH levels (Maher, P. et al., Genes. Nutr. (2009) September 10). To determine if the derivatives which can maintain GSH levels do so by increasing Nrf2 we looked at Nrf2 levels in the nuclei of derivative-treated cells using Fisetin as a positive control (Table 4). […] This was particularly true for the derivatives based on the quinoline scaffold where none of them increased Nrf2 despite being very effective at maintaining GSH levels.
On the technique in general: In western blotting, separated proteins are transferred to a membrane and probed.

Assay [3] concerns HT22 cells. The experiment in a line: Maintenance of total GSH in the presence of glutamate. In kind it is cell-based, mouse. The note with it: derivative 1-10 μM, 5 mM glutamate, 24 hr. A digest of the protocol: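 HT22 cells treated 24 hr with each derivative at 1-10 μM plus 5 mM glutamate, then extracts analysed for total GSH by chemical assay. Fisetin (10 μM) served as positive control.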

Assay [4] can be described thus: TEAC, ABTS decolorization assay. As to conditions: relative to Trolox. Put shortly:
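Compound in ethanol added to persulfate-generated ABTS radical cation (OD ~0.7 at 734 nm); absorbance decrease followed at 734 nm for 4 min. TEAC is the slope of percent absorbance inhibition versus concentration divided by the corresponding Trolox slope.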

On to `O=c1c(O)c(-c2ccc(O)c(O)c2)oc2ccccc12` [CMS-04P, reference compound], for which, in assay [1], the “PC12 diff'n (ability to induce PC12 cell differentiation)” value is “yes”. Besides, in assay [2], the “Nrf2 (ability to induce the transcription factor Nrf2)” value (shortened to “Nrf2”) is “Yes”. The “GSH (ability to maintain GSH)” value in assay [3] is “yes”. The TEAC in assay [4] was 2.

For `COc1cc(-c2oc3cc(C)c(C)cc3c(=O)c2O)ccc1O` [CMS-069, 3-hydroxy-2-(4-hydroxy-3-methoxyphenyl)-6,7-dimethyl-4H-chromen-4-one], the “PC12 diff'n (ability to induce PC12 cell differentiation)” value in assay [1] is given as “no”. Also, the “GSH (ability to maintain GSH)” value in assay [3] was “no”. This compound also registered a TEAC in assay [4] of 1.89.

For `CCOc1cc(-c2ccc(O)c(O)c2)nc2ccccc12` [CMS-023, 4-ethoxy-2-(3,4-dihydroxyphenyl) quinoline], the “PC12 diff'n (ability to induce PC12 cell differentiation)” value in assay [1] is “yes”. Besides, the “Nrf2” value in assay [2] was “No”. For the same compound, the “GSH (ability to maintain GSH)” value in assay [3] is listed as “yes”. For the same compound, the TEAC in assay [4] was 0.90.

For the compound `COc1cc(-c2ccc(O)c(O)c2)nc2ccccc12` [CMS-007, 4-methoxy-2-(3,4-dihydroxyphenyl) quinoline], in assay [1], the “PC12 diff'n (ability to induce PC12 cell differentiation)” value was “no”. For the same compound, in assay [2], the “Nrf2” value is “No”. In addition, in assay [3], the “GSH (ability to maintain GSH)” value was “yes”. Besides, in assay [4], the TEAC is on record as 0.36.

Turning to `Oc1ccc(-c2cc(OC3CCCC3)c3ccccc3n2)cc1O` [CMS-121, 4-cyclopentyloxy-2-(3,4-dihydroxyphenyl) quinoline], in assay [1], the “PC12 diff'n (ability to induce PC12 cell differentiation)” value was “yes”. Further, the “Nrf2” value in assay [2] is “No”. Also, in assay [3], the “GSH (ability to maintain GSH)” value is recorded as “yes”. The compound also yielded a TEAC in assay [4] of 0.40.

As to `CN(C)c1ccc(-c2oc3c(ccc4ccccc43)c(=O)c2O)cc1` [CMS-118, 2-(4-(dimethylamino)phenyl)-3-hydroxy-4H-benzo[h]chromen-4-one], the “PC12 diff'n (ability to induce PC12 cell differentiation)” value in assay [1] is reported as “no”. In assay [2], the “Nrf2” value is on record as “No”. For the same compound, the “GSH (ability to maintain GSH)” value in assay [3] was “yes”. Further, in assay [4], the TEAC was found to be 0.93.

Take `Cc1cc2oc(-c3ccc(N4CCCC4)cc3)c(O)c(=O)c2cc1C` [CMS-122, 3-hydroxy-6,7-dimethyl-2-(4-(pyrrolidin-1-yl)phenyl)-4H-chromen-4-one]: in assay [1], the “PC12 diff'n (ability to induce PC12 cell differentiation)” value is “yes”. Also, the “Nrf2” value in assay [2] is given as “No”. Also, the “GSH (ability to maintain GSH)” value in assay [3] is “yes”. In assay [4], the TEAC was 2.4.

As for `COc1cc(-c2oc3cc(C)c(C)cc3c(=O)c2O)ccc1OCc1ccccc1` [CMS-059, 2-(4-(benzyloxy)-3-methoxyphenyl)-3-hydroxy-6,7-dimethyl-4H-chromen-4-one], in assay [1], the “PC12 diff'n (ability to induce PC12 cell differentiation)” value is reported as “no”. In assay [3], the “GSH (ability to maintain GSH)” value is “no”. In assay [4], the TEAC is listed as 0.27.

In the case of `O=C(/C=C/c1ccc(O)c(O)c1)c1ccc2ccccc2c1O` [CMS-034, (E)-3-(3,4-dihydroxyphenyl)-1-(1-hydroxynaphthalen-2-yl)prop-2-en-1-one], in assay [1], the “PC12 diff'n (ability to induce PC12 cell differentiation)” value is recorded as “yes”. Moreover, the “Nrf2” value in assay [2] is on record as “Yes”. Moreover, the “GSH (ability to maintain GSH)” value in assay [3] is reported as “yes”. For the same compound, the TEAC in assay [4] amounted to 2.8.

On to `CC(C)Oc1cc(-c2ccc(O)c(O)c2)nc2ccccc12` [CMS-024, 4-isopropoxy-2-(3,4-dihydroxyphenyl) quinoline], for which the “PC12 diff'n (ability to induce PC12 cell differentiation)” value in assay [1] is “yes”. Further, the “Nrf2” value in assay [2] is on record as “No”. Besides, the “GSH (ability to maintain GSH)” value in assay [3] is recorded as “yes”. In assay [4], this compound returned a TEAC of 0.18.

On to `Cc1cc(O)c(C(=O)/C=C/c2ccc(O)c(O)c2)cc1C` [CMS-011, (E)-3-(3,4-dihydroxyphenyl)-1-(2-hydroxy-4,5-dimethylphenyl)prop-2-en-1-one], for which the “PC12 diff'n (ability to induce PC12 cell differentiation)” value in assay [1] is listed as “yes”. The “Nrf2” value in assay [2] was “Yes”. For the same compound, the “GSH (ability to maintain GSH)” value in assay [3] is listed as “yes”. For the same compound, the TEAC in assay [4] came out at 2.7.

On to `O=c1c(O)c(-c2ccc(O)c(O)c2)oc2cc(O)ccc12` [Fisetin, 3,7,3′,4′-Tetrahydroxyflavone, reference compound], for which the “PC12 diff'n (ability to induce PC12 cell differentiation)” value in assay [1] is recorded as “yes”. The “Nrf2” value in assay [2] is on record as “Yes”. For the same compound, in assay [3], the “GSH (ability to maintain GSH)” value was “yes”. In assay [4], this compound showed a TEAC of 3.

In the case of `Cc1cc2oc(-c3ccc(N(C)C)cc3)c(O)c(=O)c2cc1C` [CMS-117, 2-(4-(dimethylamino)phenyl)-3-hydroxy-6,7-dimethyl-4H-chromen-4-one], the “PC12 diff'n (ability to induce PC12 cell differentiation)” value in assay [1] is “no”. In addition, the “Nrf2” value in assay [2] is “No”. Also, the “GSH (ability to maintain GSH)” value in assay [3] was “yes”. The TEAC in assay [4] is listed as 3.

Take `O=c1c(O)c(-c2ccc(N3CCCC3)c(O)c2)oc2c1ccc1ccccc12` [CMS-140, 3-hydroxy-2-(3-hydroxy-4-(pyrrolidin-1-yl)phenyl)-4H-benzo[h]chromen-4-one]: the “PC12 diff'n (ability to induce PC12 cell differentiation)” value in assay [1] is on record as “Yes”. The “Nrf2” value in assay [2] was “No”. Also, the “GSH (ability to maintain GSH)” value in assay [3] is listed as “Yes”. The compound also registered a TEAC in assay [4] of 2.1.

On to `COc1ccc(/C=C/C(=O)c2cc(C)c(C)cc2O)cc1OCc1ccccc1` [CMS-086, (E)-3-(3-(benzyloxy)-4-methoxyphenyl)-1-(2-hydroxy-4,5-dimethylphenyl)prop-2-en-1-one], for which the “PC12 diff'n (ability to induce PC12 cell differentiation)” value in assay [1] is recorded as “yes”. Moreover, the “Nrf2” value in assay [2] is on record as “Yes”. The “GSH (ability to maintain GSH)” value in assay [3] is on record as “yes”. This compound showed a TEAC in assay [4] of 0.12.

As to `O=c1c(O)c(-c2ccc(O)c(O)c2)oc2c1ccc1ccccc12` [CMS-040, 2-(3,4-dihydroxyphenyl)-3-hydroxy-4H-benzo[h]chromen-4-one], in assay [1], the “PC12 diff'n (ability to induce PC12 cell differentiation)” value is given as “yes”. In assay [3], the “GSH (ability to maintain GSH)” value is reported as “no”. The same compound displayed a TEAC in assay [4] of 2.4.

(Values after US20140186329A1, “POLYPHENOL ANALOGS TO TREAT ISCHEMIA” (priority 2011, published 2014).)
